## O=C(O)c1ccccc1
In 2-pentanone, 283.15 K
  solubility (mole fraction): 0.163
In 2-pentanone, 288.15 K
  solubility (mole fraction): 0.18
In 2-pentanone, 293.15 K
  solubility (mole fraction): 0.196
In 2-pentanone, 298.15 K
  solubility (mole fraction): 0.215
In 2-pentanone, 303.15 K
  solubility (mole fraction): 0.234
In 2-pentanone, 308.15 K
  solubility (mole fraction): 0.256
In 2-pentanone, 313.15 K
  solubility (mole fraction): 0.279
In 2-pentanone, 318.15 K
  solubility (mole fraction): 0.315
In 2-pentanone, 323.15 K
  solubility (mole fraction): 0.349
In 2-pentanone, 328.15 K
  solubility (mole fraction): 0.388
In diacetone alcohol, 283.15 K
  solubility (mole fraction): 0.234
In diacetone alcohol, 288.15 K
  solubility (mole fraction): 0.251
In diacetone alcohol, 293.15 K
  solubility (mole fraction): 0.269
In diacetone alcohol, 298.15 K
  solubility (mole fraction): 0.287
In diacetone alcohol, 303.15 K
  solubility (mole fraction): 0.306
In diacetone alcohol, 308.15 K
  solubility (mole fraction): 0.315
In diacetone alcohol, 313.15 K
  solubility (mole fraction): 0.336
In diacetone alcohol, 318.15 K
  solubility (mole fraction): 0.367
In diacetone alcohol, 323.15 K
  solubility (mole fraction): 0.396
In diacetone alcohol, 328.15 K
  solubility (mole fraction): 0.426
In isooctane, 283.15 K
  solubility (mole fraction): 0.002
In isooctane, 288.15 K
  solubility (mole fraction): 0.003
In isooctane, 293.15 K
  solubility (mole fraction): 0.005
In isooctane, 298.15 K
  solubility (mole fraction): 0.007
In isooctane, 303.15 K
  solubility (mole fraction): 0.01
In isooctane, 308.15 K
  solubility (mole fraction): 0.013
In isooctane, 313.15 K
  solubility (mole fraction): 0.018
In isooctane, 318.15 K
  solubility (mole fraction): 0.023
In isooctane, 323.15 K
  solubility (mole fraction): 0.031
In isooctane, 328.15 K
  solubility (mole fraction): 0.04
In methyl acetate, 283.15 K
  solubility (mole fraction): 0.125
In methyl acetate, 288.15 K
  solubility (mole fraction): 0.152
In methyl acetate, 293.15 K
  solubility (mole fraction): 0.175
In methyl acetate, 298.15 K
  solubility (mole fraction): 0.198
In methyl acetate, 303.15 K
  solubility (mole fraction): 0.213
In methyl acetate, 308.15 K
  solubility (mole fraction): 0.237
In methyl acetate, 313.15 K
  solubility (mole fraction): 0.26
In methyl acetate, 318.15 K
  solubility (mole fraction): 0.282
In methyl acetate, 323.15 K
  solubility (mole fraction): 0.318
In methyl acetate, 328.15 K
  solubility (mole fraction): 0.348
In n-pentyl acetate, 283.15 K
  solubility (mole fraction): 0.091
In n-pentyl acetate, 288.15 K
  solubility (mole fraction): 0.112
In n-pentyl acetate, 293.15 K
  solubility (mole fraction): 0.133
In n-pentyl acetate, 298.15 K
  solubility (mole fraction): 0.159
In n-pentyl acetate, 303.15 K
  solubility (mole fraction): 0.179
In n-pentyl acetate, 308.15 K
  solubility (mole fraction): 0.198
In n-pentyl acetate, 313.15 K
  solubility (mole fraction): 0.226
In n-pentyl acetate, 318.15 K
  solubility (mole fraction): 0.252
In n-pentyl acetate, 323.15 K
  solubility (mole fraction): 0.282
In n-pentyl acetate, 328.15 K
  solubility (mole fraction): 0.316
In tributyl phosphate, 283.15 K
  solubility (mole fraction): 0.492
In tributyl phosphate, 288.15 K
  solubility (mole fraction): 0.507
In tributyl phosphate, 293.15 K
  solubility (mole fraction): 0.522
In tributyl phosphate, 298.15 K
  solubility (mole fraction): 0.53
In tributyl phosphate, 303.15 K
  solubility (mole fraction): 0.543
In tributyl phosphate, 308.15 K
  solubility (mole fraction): 0.553
In tributyl phosphate, 313.15 K
  solubility (mole fraction): 0.563
In tributyl phosphate, 318.15 K
  solubility (mole fraction): 0.581
In tributyl phosphate, 323.15 K
  solubility (mole fraction): 0.6
In tributyl phosphate, 328.15 K
  solubility (mole fraction): 0.631

— BigSolDB 2.1
